According to patent US6410735B1, “1-(4-arylpiperazin-1-y1)-ω-[N-(α,ω-dicarboximido)]-alkanes useful as uro-selective α1-adrenoceptor blockers” (Ranbaxy Laboratories Limited, priority 1997, dated 2002):

Tests used:
Assay type in all cases: cell-based
β1-adrenoceptor = molecular target: T1, β1-adrenoceptor (Rattus norvegicus, UniProt P18090); experiment: Receptor selectivity, electrically stimulated rat ventricular strips; settings: read-out: pKB B-adrenergic (converted)
T1 construct: from tissue; host or cells: rat ventricular strips
Experimental: (§1) Selectivity of action of the present compounds was tested against a range of different receptors, e.g., β1- and α2-adrenergic, muscarinic cholinergic, serotoninergic (5-HT2A), histaminergic (H1), angiotensin II, endothelin (ETA and B,), as well as calcium and potassium channels. Rat aorta was used to study the effect of the compounds on 5-HT2A, ETA, calcium and potassium channels. Angiotensin II receptor antagonistic activity was studied in rabbit aorta. Muscarinic cholinergic receptor and ETB receptor antagonistic activity was studied in rat trachea, while guinea pig trachea was used to study H1 receptor antagonistic activity. Electrically stimulated rat vas deferens was used to investigate the effect of α2-adrenoceptors, while β1-adrenoceptor antagonistic activity was studied using electrically stimulated rat ventricular strips. Results of this selectivity study is shown in (Table 2).

ETA = molecular target: T2, ETA (Rattus norvegicus, UniProt P26684); experiment: Receptor selectivity, rat aorta; settings: read-out: pKB ETA (converted)
T2 construct: from tissue; host or cells: rat aorta
T2 sequence (P26684 21-426): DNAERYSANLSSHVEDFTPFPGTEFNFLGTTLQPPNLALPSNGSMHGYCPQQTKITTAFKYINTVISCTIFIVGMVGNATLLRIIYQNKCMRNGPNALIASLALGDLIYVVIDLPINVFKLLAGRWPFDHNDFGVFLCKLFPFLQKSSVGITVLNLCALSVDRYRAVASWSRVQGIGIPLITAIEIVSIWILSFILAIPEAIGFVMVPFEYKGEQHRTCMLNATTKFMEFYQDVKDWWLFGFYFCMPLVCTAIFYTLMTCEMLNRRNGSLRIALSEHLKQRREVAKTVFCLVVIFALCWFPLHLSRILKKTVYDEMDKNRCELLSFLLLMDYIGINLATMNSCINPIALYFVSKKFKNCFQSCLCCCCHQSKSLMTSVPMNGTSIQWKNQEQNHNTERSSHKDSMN
Experimental: as §1

ETB receptor = molecular target: T3, ETB receptor (Rattus norvegicus, UniProt P21451); experiment: Receptor selectivity, rat trachea; settings: read-out: pKB ETB (converted)
T3 construct: from tissue; host or cells: rat trachea
T3 sequence (P21451 27-442): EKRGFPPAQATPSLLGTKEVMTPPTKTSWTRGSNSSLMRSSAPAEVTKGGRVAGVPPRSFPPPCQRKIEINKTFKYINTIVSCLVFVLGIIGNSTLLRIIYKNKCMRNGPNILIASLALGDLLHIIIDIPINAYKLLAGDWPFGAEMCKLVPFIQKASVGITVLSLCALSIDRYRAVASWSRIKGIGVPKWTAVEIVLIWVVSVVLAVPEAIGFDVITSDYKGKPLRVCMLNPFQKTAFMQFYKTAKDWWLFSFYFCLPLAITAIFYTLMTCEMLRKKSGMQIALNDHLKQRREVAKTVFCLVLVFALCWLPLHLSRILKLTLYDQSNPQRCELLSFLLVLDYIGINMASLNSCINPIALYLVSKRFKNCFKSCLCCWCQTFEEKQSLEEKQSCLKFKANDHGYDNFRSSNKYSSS
Experimental: as §1

Angiotensin II receptor = molecular target: T4, Angiotensin II receptor (Oryctolagus cuniculus, UniProt P34976); experiment: Receptor selectivity, rabbit aorta; settings: read-out: pKB Angiotensin II (converted)
T4 construct: from tissue; host or cells: rabbit aorta
T4 sequence (P34976 1-359): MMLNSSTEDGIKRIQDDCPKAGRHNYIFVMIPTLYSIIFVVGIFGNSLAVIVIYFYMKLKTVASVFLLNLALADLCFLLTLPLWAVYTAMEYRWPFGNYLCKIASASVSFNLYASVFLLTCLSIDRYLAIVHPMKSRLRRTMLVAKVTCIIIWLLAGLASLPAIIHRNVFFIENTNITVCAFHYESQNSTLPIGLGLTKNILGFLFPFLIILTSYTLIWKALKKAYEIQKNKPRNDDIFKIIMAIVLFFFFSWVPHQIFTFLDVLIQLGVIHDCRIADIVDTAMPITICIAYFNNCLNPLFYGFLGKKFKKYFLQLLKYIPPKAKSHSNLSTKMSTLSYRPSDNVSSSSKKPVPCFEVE
Experimental: as §1

T1 sequence (P18090 whole entry): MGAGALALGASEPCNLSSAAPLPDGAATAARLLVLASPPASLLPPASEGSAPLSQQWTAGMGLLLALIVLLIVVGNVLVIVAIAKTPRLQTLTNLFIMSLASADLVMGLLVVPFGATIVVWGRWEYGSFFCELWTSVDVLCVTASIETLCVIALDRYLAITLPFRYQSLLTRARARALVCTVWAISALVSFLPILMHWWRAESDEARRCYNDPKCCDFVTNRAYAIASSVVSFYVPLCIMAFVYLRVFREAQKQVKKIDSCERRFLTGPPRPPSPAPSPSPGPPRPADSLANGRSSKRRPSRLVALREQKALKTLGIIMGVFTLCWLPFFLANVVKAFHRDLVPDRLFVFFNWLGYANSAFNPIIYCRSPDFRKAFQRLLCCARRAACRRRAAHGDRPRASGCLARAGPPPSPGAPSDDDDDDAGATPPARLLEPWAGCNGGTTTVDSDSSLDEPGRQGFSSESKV

Row | SMILES | Kb (β1-adrenoceptor) [µM] | Kb (ETA) [µM] | Kb (ETB receptor) [µM] | Kb (Angiotensin II receptor) [µM]
1 | COc1ccccc1N1CCN(CCCN2C(=O)CCC2=O)CC1 [Compound 2, 1-[4-(2-Methoxyphenyl)piperazin-1-yl]3-(2,5-dioxopyrrolidin-1-yl)propane] | 63.1 | – | – | –
2 | COc1ccccc1N1CCN(CCCCN2C(=O)CCC2=O)CC1 [Compound 9, 1-[4-(2-Methoxyphenyl)piperazin-1-yl]-4-(2,5-dioxopyrrolidin-1-yl)butane] | – | 50.1 | 3.98 | 2.51
3 | COc1ccccc1N1CCN(CCCN2C(=O)CCCC2=O)CC1 [Compound 13, 1-[4-(2-Methoxyphenyl)piperazin-1-yl]-3-(2,6-dioxopiperidin-1-yl)propane] | 7.94 | 50.1 | 12.6 | 5.01
